Test results as given in US20140005163A1 (NOVARTIS AG, priority 2010, published 2014).
Converted amounts (≈) assume the structure as drawn.

Key:
[1] = Solubility at pH 6.8; format: physicochemical; settings: pH 6.8, aqueous buffer, thermodynamic from solid; read-out: solubility
Outline: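 Solubility was measured at pH 6.8 following the cited Zhou et al. (2007) procedure.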

[2] = molecular target: T1, PI3K alpha (Homo sapiens, UniProt P42336); test: PI3K alpha kinase assay (Kinase-Glo luminescence); format: biochemical
T1 construct: p85(iSH2) fusion partner (see partner chain) (N); His tag (C); made in house; host or cells: baculovirus; Tn5 (Trichoplusia ni) or TiniPro insect cells
T1 sequence (P42336 with tags, fused parts or gaps limits assumed): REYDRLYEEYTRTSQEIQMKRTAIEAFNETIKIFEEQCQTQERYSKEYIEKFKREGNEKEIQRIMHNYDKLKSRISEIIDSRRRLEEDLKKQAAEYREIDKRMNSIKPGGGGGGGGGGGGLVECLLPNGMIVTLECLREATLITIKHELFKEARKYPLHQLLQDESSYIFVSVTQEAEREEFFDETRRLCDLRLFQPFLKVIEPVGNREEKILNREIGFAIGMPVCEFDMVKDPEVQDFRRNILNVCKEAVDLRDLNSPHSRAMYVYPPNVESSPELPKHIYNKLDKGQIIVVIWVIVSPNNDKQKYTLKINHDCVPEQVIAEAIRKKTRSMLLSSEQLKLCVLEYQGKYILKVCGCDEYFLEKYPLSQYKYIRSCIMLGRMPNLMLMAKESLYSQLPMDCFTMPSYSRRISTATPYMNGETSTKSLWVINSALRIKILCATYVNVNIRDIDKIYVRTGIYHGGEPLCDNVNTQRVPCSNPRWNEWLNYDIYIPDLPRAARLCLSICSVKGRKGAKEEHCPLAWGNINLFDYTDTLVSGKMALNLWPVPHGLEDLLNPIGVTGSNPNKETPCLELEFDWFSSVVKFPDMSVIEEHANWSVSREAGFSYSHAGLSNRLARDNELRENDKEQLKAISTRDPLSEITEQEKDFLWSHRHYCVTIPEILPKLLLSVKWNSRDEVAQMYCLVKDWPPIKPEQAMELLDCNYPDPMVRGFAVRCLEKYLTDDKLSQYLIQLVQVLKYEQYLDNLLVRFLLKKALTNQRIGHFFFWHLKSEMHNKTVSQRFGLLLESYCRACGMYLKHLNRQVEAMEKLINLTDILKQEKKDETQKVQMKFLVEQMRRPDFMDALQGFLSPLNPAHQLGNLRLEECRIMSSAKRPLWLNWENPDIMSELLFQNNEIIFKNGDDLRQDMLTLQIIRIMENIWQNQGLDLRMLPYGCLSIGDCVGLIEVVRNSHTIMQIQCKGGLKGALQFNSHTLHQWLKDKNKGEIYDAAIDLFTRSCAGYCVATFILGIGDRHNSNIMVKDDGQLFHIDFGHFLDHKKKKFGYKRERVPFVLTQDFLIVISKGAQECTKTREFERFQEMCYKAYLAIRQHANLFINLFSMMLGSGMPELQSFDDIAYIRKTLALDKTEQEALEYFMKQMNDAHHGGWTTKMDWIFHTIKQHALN
Outline: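 PI3Kα construct EMV B1075 (10 nM final) was preincubated with 10 μg/mL phosphatidylinositol in 10 mM Tris-HCl pH 7.5, 3 mM MgCl2, 50 mM NaCl, 0.05% CHAPS, 1 mM DTT. Reaction started with 1 μM ATP, 60 min at room temperature; remaining ATP measured by Kinase-Glo luminescence. IC50 from 4-parameter logistic fit of 8-point titrations.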

[3] = system: PKB Ser473 phosphorylation in Rat1-myr-HA-p110 delta cells; test: Reverse protein array assay, PKB Ser473 phosphorylation in Rat1-myr-p110 delta cells; format: cell-based; settings: read-out: p-PKB IC50
Outline: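 Cells: Rat1-myr-HA-p110 alpha/beta/delta, seeded ≥20 h. Lysis on ice 10 min; reverse-phase protein array, 4 lysate dilutions; fluorescence read, relative intensity.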

Row | solubility [1] | IC50 [2] | IC50 [3] | Structure (SMILES)
1 | 26 µg/mL (≈ 49.3 µM) | 91 nM | 84 nM | CCOc1ccc(-c2ccc3ncc4c(c3c2)n(-c2cn(CC(=O)N3CCOCC3)nc2C)c(=O)n4C)cn1 [Example 3.10, 8-(6-Ethoxy-pyridin-3-yl)-3-methyl-1-[3-methyl-1-(2-morpholin-4-yl-2-oxo-ethyl)-1H-pyrazol-4-yl]-1,3-dihydro-imidazo[4,5-c]quinolin-2-one]
2 | 50 µg/mL (≈ 121 µM) | 65 nM | 882 nM | COc1ccc(-c2ccc3ncc4c(c3c2)n(-c2c(C)nn(C)c2C)c(=O)n4C)cn1 [Example 2.4, 8-(6-Methoxy-pyridin-3-yl)-3-methyl-1-(1,3,5-trimethyl-1H-pyrazol-4-yl)-1,3-dihydro-imidazo[4,5-c]quinolin-2-one]
3 | 19 µg/mL (≈ 44.6 µM) | 10 nM | 46 nM | CNC(=O)c1ccc(-c2ccc3ncc4c(c3c2)n(-c2cn(C)nc2C)c(=O)n4C)cc1 [Example 43.1, 4-[1-(1,3-Dimethyl-1H-pyrazol-4-yl)-3-methyl-2-oxo-2,3-dihydro-1H-imidazo[4,5-c]quinolin-8-yl]-N-methyl-benzamide]
4 | > 435 µg/mL | 30 nM | 44 nM | COCc1cncc(-c2ccc3ncc4c(c3c2)n(-c2cn(C)nc2Cl)c(=O)n4C)c1 [Example 54.2, 1-(3-Chloro-1-methyl-1H-pyrazol-4-yl)-8-(5-methoxymethyl-pyridin-3-yl)-3-methyl-1,3-dihydro-imidazo[4,5-c]quinolin-2-one]
5 | 4 µg/mL (≈ 8.45 µM) | 22 nM | 91 nM | COCCOc1ccc(-c2ccc3ncc4c(c3c2)n(-c2cn(C)nc2C)c(=O)n4C)cc1OC [Example 30.1, 1-(1,3-Dimethyl-1H-pyrazol-4-yl)-8-[3-methoxy-4-(2-methoxy-ethoxy)-phenyl]-3-methyl-1,3-dihydro-imidazo[4,5-c]quinolin-2-one]
6 | 6 µg/mL (≈ 14 µM) | 6 nM | 33 nM | CCOc1cc(-c2ccc3ncc4c(c3c2)n(-c2cn(C)nc2C)c(=O)n4C)cnc1C [Example 85.1, 1-(1,3-Dimethyl-1H-pyrazol-4-yl)-8-(5-ethoxy-6-methyl-pyridin-3-yl)-3-methyl-1,3-dihydro-imidazo[4,5-c]quinolin-2-one]
7 | 26 µg/mL (≈ 52.3 µM) | 13 nM | 58 nM | CCOc1ccc(-c2ccc3ncc4c(c3c2)n(-c2cn(CC(=O)N3CCC3)nc2C)c(=O)n4C)cn1 [Example 138, 1-[1-(2-Azetidin-1-yl-2-oxo-ethyl)-3-methyl-1H-pyrazol-4-yl]-8-(6-ethoxy-pyridin-3-yl)-3-methyl-1,3-dihydro-imidazo[4,5-c]quinolin-2-one]
8 | 141 µg/mL (≈ 282 µM) | 25 nM | 66 nM | CCOc1ccc(-c2ccc3ncc4c(c3c2)n(-c2cn(CC(=O)N(C)CC)nc2C)c(=O)n4C)cn1 [Example 136, 2-{4-[8-(6-Ethoxy-pyridin-3-yl)-3-methyl-2-oxo-2,3-dihydro-imidazo[4,5-c]quinolin-1-yl]-3-methyl-pyrazol-1-yl}-N-ethyl-N-methyl-acetamide]
9 | > 457 µg/mL | 12 nM | 330 nM | Cc1nn(C(C)C)cc1-n1c(=O)n(C)c2cnc3ccc(-c4cncc(C(C)(C)O)c4)cc3c21 [Example 215.1, 8-[5-(1-Hydroxy-1-methyl-ethyl)-pyridin-3-yl]-1-(1-isopropyl-3-methyl-1H-pyrazol-4-yl)-3-methyl-1,3-dihydro-imidazo[4,5-c]quinolin-2-one]
10 | 3 µg/mL (≈ 6.02 µM) | 39 nM | 810 nM | COCCn1c(=O)n(C)c2ncc(-c3ccc4ncc5c(c4c3)n(-c3cn(C)nc3C)c(=O)n5C)cc21 [Example 69, 1-(1,3-Dimethyl-1H-pyrazol-4-yl)-8-[1-(2-methoxy-ethyl)-3-methyl-2-oxo-2,3-dihydro-1H-imidazo[4,5-b]pyridin-6-yl]-3-methyl-1,3-dihydro-imidazo[4,5-c]quinolin-2-one]
11 | 5 µg/mL (≈ 11.3 µM) | 15 nM | 154 nM | CNC(=O)c1cc(-c2ccc3ncc4c(c3c2)n(-c2cn(C)nc2C)c(=O)n4C)cnc1N [Example 224.1, 2-Amino-5-[1-(1,3-dimethyl-1H-pyrazol-4-yl)-3-methyl-2-oxo-2,3-dihydro-1H-imidazo[4,5-c]quinolin-8-yl]-N-methyl-nicotinamide]
12 | 11 µg/mL (≈ 23.5 µM) | 22 nM | 26 nM | Cc1nn(C)cc1-n1c(=O)n(C)c2cnc3ccc(-c4cnc5c(c4)C(C)(C)C(=O)N5C)cc3c21 [Example 233, 1-(1,3-Dimethyl-1H-pyrazol-4-yl)-3-methyl-8-(1,3,3-trimethyl-2-oxo-2,3-dihydro-1H-pyrrolo[2,3-b]pyridin-5-yl)-1,3-dihydro-imidazo[4,5-c]quinolin-2-one]
13 | 6 µg/mL (≈ 13 µM) | 10 nM | 19 nM | CCNc1cc(-c2ccc3ncc4c(c3c2)n(-c2c(C)nn(C)c2C)c(=O)n4C)cnc1Cl [Example 153.1, 8-(6-Chloro-5-ethylamino-pyridin-3-yl)-3-methyl-1-(1,3,5-trimethyl-1H-pyrazol-4-yl)-1,3-dihydro-imidazo[4,5-c]quinolin-2-one]
14 | 58 µg/mL (≈ 130 µM) | 20 nM | 26 nM | CCn1cc(-n2c(=O)n(C)c3cnc4ccc(-c5cnc(OC)nc5OC)cc4c32)c(C)n1 [Example 234.1, 8-(2,4-Dimethoxy-pyrimidin-5-yl)-1-(1-ethyl-3-methyl-1H-pyrazol-4-yl)-3-methyl-1,3-dihydro-imidazo[4,5-c]quinolin-2-one]
15 | 15 µg/mL (≈ 36.2 µM) | 21 nM | 42 nM | CCOc1ccc(-c2ccc3ncc4c(c3c2)n(-c2cn(C)nc2C)c(=O)n4C)cn1 [Example 3.1, 1-(1,3-Dimethyl-1H-pyrazol-4-yl)-8-(6-ethoxy-pyridin-3-yl)-3-methyl-1,3-dihydro-imidazo[4,5-c]quinolin-2-one]
16 | > 512 µg/mL | 5 nM | 772 nM | Cc1nn(CC(=O)N2CCC2)cc1-n1c(=O)n(C)c2cnc3ccc(-c4cncc(OC(C)C)c4)cc3c21 [Example 205, 1-[1-(2-Azetidin-1-yl-2-oxo-ethyl)-3-methyl-1H-pyrazol-4-yl]-8-(5-isopropoxy-pyridin-3-yl)-3-methyl-1,3-dihydro-imidazo[4,5-c]quinolin-2-one]
17 | 7 µg/mL (≈ 15.3 µM) | 38 nM | 234 nM | CCOc1ccc(-c2ccc3ncc4c(c3c2)n(-c2c(C)nn(C)c2C)c(=O)n4C)cc1OC [Example 29.2, 8-(4-Ethoxy-3-methoxy-phenyl)-3-methyl-1-(1,3,5-trimethyl-1H-pyrazol-4-yl)-1,3-dihydro-midazo[4,5-c]quinolin-2-one]
18 | 59 µg/mL (≈ 138 µM) | 17 nM | 48 nM | CCN(C)c1cncc(-c2ccc3ncc4c(c3c2)n(-c2cn(C)nc2C)c(=O)n4C)c1 [Example 176, 1-(1,3-Dimethyl-1H-pyrazol-4-yl)-8-[5-(ethyl-methyl-amino)-pyridin-3-yl]-3-methyl-1,3-dihydro-imidazo[4,5-c]quinolin-2-one]
19 | 445 µg/mL (≈ 944 µM) | 24 nM | 53 nM | CCNc1cc(-c2ccc3ncc4c(c3c2)n(-c2c(C)nn(CCO)c2C)c(=O)n4C)cnc1C [Example 210, 8-(5-Ethylamino-6-methyl-pyridin-3-yl)-1-[1-(2-hydroxy-ethyl)-3,5-dimethyl-1H-pyrazol-4-yl]-3-methyl-1,3-dihydro-imidazo[4,5-c]quinolin-2-one]
20 | 10 µg/mL (≈ 22.9 µM) | 5 nM | 41 nM | Cn1cc(-n2c(=O)n(C)c3cnc4ccc(-c5cnc(N)c(CO)c5)cc4c32)c(Cl)n1 [Example 169.3, 8-(6-Amino-5-hydroxymethyl-pyridin-3-yl)-1-(3-chloro-1-methyl-1H-pyrazol-4-yl)-3-methyl-1,3-dihydro-imidazo[4,5-c]quinolin-2-one]
21 | 5 µg/mL (≈ 11.6 µM) | 7 nM | 21 nM | CCn1cc(-n2c(=O)n(C)c3cnc4ccc(-c5cnc(F)c(NC)c5)cc4c32)c(C)n1 [Example 150.1, 1-(1-Ethyl-3-methyl-1H-pyrazol-4-yl)-8-(6-fluoro-5-methylamino-pyridin-3-yl)-3-methyl-1,3-dihydro-imidazo[4,5-c]quinolin-2-one]
22 | 361 µg/mL (≈ 787 µM) | 34 nM | 132 nM | CCOc1cc(-c2ccc3ncc4c(c3c2)n(-c2cn(C)nc2C)c(=O)n4C)cnc1COC [Example 197.1, 1-(1,3-Dimethyl-1H-pyrazol-4-yl)-8-(5-ethoxy-6-methoxymethyl-pyridin-3-yl)-3-methyl-1,3-dihydro-imidazo[4,5-c]quinolin-2-one]
23 | 71 µg/mL (≈ 166 µM) | 99 nM | 787 nM | Cc1nn(C)c(C)c1-n1c(=O)n(C)c2cnc3ccc(-c4ccc(N(C)C)nc4)cc3c21 [Example 4.3, 8-(6-Dimethylamino-pyridin-3-yl)-3-methyl-1-(1,3,5-trimethyl-1H-pyrazol-4-yl)-1,3-dihydro-imidazo[4,5-c]quinolin-2-one]
24 | 62 µg/mL (≈ 136 µM) | 125 nM | 59 nM | CCNc1cc(-c2ccc3ncc4c(c3c2)n(-c2c(C)nn(C)c2C)c(=O)n4C)cnc1CO [Example 155.4, 8-(5-Ethylamino-6-hydroxymethyl-pyridin-3-yl)-3-methyl-1-(1,3,5-trimethyl-1H-pyrazol-4-yl)-1,3-dihydro-imidazo[4,5-c]quinolin-2-one]
